Reference: patent publication US20240002393A1, “SUBSTITUTED BENZO[f][l ,2,4JTRIAZOL0[4,3-a][l ,4J[…] GABA A GAMMA! POSITIVE ALLOSTERIC MODULATORS” (Hoffmann-La Roche Inc., priority 2020, published 2024)

Tests used:
Assay in all cases: Radioligand binding assay, [3H]RO7239181 competition, γ1-containing GABAA subtypes
[1] = biological target: human GABAA α5β2γ1 receptor (Homo sapiens (Human), UniProt P31644+Q8N1C3); settings: HEK293F membranes, mean of two determinations
Method: The affinity of compounds at GABAA γ1 subunit-containing receptors was measured by competition for [^3H]RO7239181 (67.3 Ci/mmol; Roche) binding to membranes from HEK293F cells (ThermoFisher R79007) expressing human (transiently transfected) receptors of composition α5β2γ1, α2β2γ1, α1β2γ1. For better protein expression of the α2 subunit-containing receptors, the 28 amino acid long signal peptide (Met1 to Ala28) of the human GABAA α2 subunit was substituted by the 31 amino acid long signal peptide (Met1 to Ser31) of human GABAA α5 subunit.
Harvested pellets from HEK293F cells expressing the different GABAA receptor subtypes were resuspended in Mannitol Buffer pH 7.2-7.4 (Mannitol 0.29M, Triethylamine 10 mM, Acetic acid 10 mM, EDTA 1 mM plus protease inhibitors (20 tablets Complete, Roche Diagnostics Cat. No. 05 056 489 001 per liter)), washed two times and then resuspended at 1:10 to 1:15 dilution in the same buffer. Cell disruption was performed by stirring the suspension in a Parr vessel #4637 at 435 psi for 15 minutes, and then the suspensions were centrifuged at 1000×g for 15 minutes at 4° C. (Beckman Avanti J-HC; rotor JS)-4.2). The supernatant (S1) was transferred in a 21 Schott flask and the pellet (P1) was resuspended with Mannitol Buffer up to 175 ml. The resuspended pellet was transferred into a 250 ml Corning centrifugal beaker and centrifuged at 1500×g for 10 minutes at 4° C. (Beckman Avanti J-HC; rotor JS)-4.2). The supernatant (S1) was then transferred in the 21 Schott flask and the pellet was discarded. The supernatants (S1) were centrifuged in 500 ml Beckman polypropylene centrifugal beaker at 15,000×g for 30 minutes at 4° C. (Beckman Avanti J-20 XP; rotor JLA-10.500). The pellet (P2) was resuspended with Mannitol Buffer 1:1 and frozen at −80° C. The supernatant (S2) was centrifuged in 100 ml Beckman polypropylene centrifugal tubes at 48000×g for 50 minutes at […] (Beckman Avanti J-20 XP; rotor JA-18). The supernatant (S3) was discarded and the pellet (P3) was resuspended with 1:1 Mannitol Buffer. The P2 and P3 protein concentration was determined with the BIORAD Standard assay method with bovine serum albumin as standard and measured on the NANO-Drop 1000. The membrane suspension was aliquots (500 μl per tube) and stored at −80° C. until required.
Membrane homogenates were resuspended and polytronised (Polytron PT1200E Kinematica AG) in Potassium Phosphate 10 mM, KCl 100 mM binding buffer at pH 7.4 to a final assay concentration determined with a previous experiment.
Radioligand binding assays were carried out in a volume of 200 µL (96-well plates) which contained 100 μL of cell membranes, [^3H]RO7239181 at a concentration of 1.5 nM (α5β2γ1) or 20-30 nM (α1β2γ1, 2β2γ1) and the test compound in the range of [0.3-10000]×10^−9 M. Nonspecific binding was defined by 10×10^−6 (α5β2γ1) and 30×10^−6 M RO7235136 and typically represented less than 5% (α5β2γ1) and less than 20% (α1β2γ1, α2β2γ1) of the total binding. Assays were incubated to equilibrium for 1 hour at 4° C. and then, membranes were filtered onto unifilter (96-well white microplate with bonded GF/C filters preincubated 20-50 minutes in 0.3% Polyethylenimine) with a Filtermate 196 harvester (Packard BioScience) and washed 4 times with cold Potassium Phosphate 10 mM pH 7.4, KCl 100 mM binding buffer. After drying, filter-retained radioactivity was detected by liquid scintillation counting. K, values were calculated using Excel-Fit (Microsoft) and are the means of two determinations.
Representative test results, obtained by the above described assay measuring binding affinity to HEK293 cells expressing human (h) receptors, are shown in the Table 1.

[2] = biological target: human GABAA α1β2γ1 receptor (Homo sapiens (Human), UniProt P14867+Q8N1C3); settings: HEK293F membranes, [3H]RO7239181 20-30 nM, mean of two determinations
[3] = biological target: human GABAA α2β2γ1 receptor (Homo sapiens (Human), UniProt P47869+Q8N1C3); settings: for Ki: HEK293F membranes, [3H]RO7239181 20-30 nM, mean of two determinations, read-out: Ki h-GABAA α2β2γ1; for γ2/γ1 Selectivity Ratio: Ki α1β3γ2 (nM)/Ki α2β2γ1 (nM); for LogSel: Log[Ki α1β3γ2 (nM)/Ki α2β2γ1 (nM)]

Row | SMILES | Ki [1] [nM] | Ki [2] [nM] | Ki [3] [nM] | γ2/γ1 Selectivity Ratio [3] | LogSel [3]
1 | Cc1nnc2n1-c1ccc(C(F)(F)F)c(Cl)c1C(c1c(F)cccc1F)=N[C@H]2C [Example 92, (4S)-7-chloro-6-(2,6-difluorophenyl)-1,4-dimethyl-8-(trifluoromethyl)-4H-[1,2,4]triazolo[4,3-a][1,4]benzodiazepine] | 1.8 | 48.3 | 21.9 | 102.0 | 2.01
2 | Cc1nnc2n1-c1ccc(C(C)(F)F)c(Cl)c1C(c1c(F)cccc1F)=N[C@H]2C [Example 93, (4S)-7-chloro-8-(1,1-difluoroethyl)-6-(2,6-difluorophenyl)-1,4-dimethyl-4H-[1,2,4]triazolo[4,3-a][1,4]benzodiazepine] | 3.1 | 85.1 | 39.1 | 152.1 | 2.18
3 | Cc1cc(-c2nnc3n2-c2ccc(Cl)c(Cl)c2C(c2c(F)cccc2F)=N[C@H]3C)ncn1 [Example 94, (4S)-7,8-dichloro-6-(2,6-difluorophenyl)-4-methyl-1-(6-methylpyrimidin-4-yl)-4H-[1,2,4]triazolo[4,3-a][1,4]benzodiazepine] | 2 | 10.3 | 8 | 76.4 | 1.88
4 | Cc1nccc(-c2nnc3n2-c2ccc(Cl)c(Cl)c2C(c2c(F)cccc2F)=N[C@H]3C)n1 [Example 95, (4S)-7,8-dichloro-6-(2,6-difluorophenyl)-4-methyl-1-(2-methylpyrimidin-4-yl)-4H-[1,2,4]triazolo[4,3-a][1,4]benzodiazepine] | 1.5 | 24.7 | 14.2 | 32.7 | 1.51
5 | Cc1cc(-c2nnc3n2-c2ccc(Cl)c(Cl)c2C(c2c(F)cccc2F)=N[C@H]3C)nc(C)n1 [Example 96, (4S)-7,8-dichloro-6-(2,6-difluorophenyl)-1-(2,6-dimethylpyrimidin-4-yl)-4-methyl-4H-[1,2,4]triazolo[4,3-a][1,4]benzodiazepine] | 3 | 27.9 | 13.9 | 34.1 | 1.53
6 | Cc1ccc2c(c1Cl)C(c1c(F)cccc1F)=N[C@@H](C)c1nnc(C)n1-2 [Example 97, (4S)-7-chloro-6-(2,6-difluorophenyl)-1,4,8-trimethyl-4H-[1,2,4]triazolo[4,3-a][1,4]benzodiazepine] | 2.5 | 33.6 | 27.1 | 15.7 | 1.19
7 | CC[C@@H]1N=C(c2c(F)cccc2F)c2c(ccc(Br)c2Cl)-n2c(C)nnc21 [Example 98, (4S)-8-bromo-7-chloro-6-(2,6-difluorophenyl)-4-ethyl-1-methyl-4H-[1,2,4]triazolo[4,3-a][1,4]benzodiazepine] | 4.4 | 57.6 | 72 | 20.3 | 1.31
8 | Cc1nnc2n1-c1ccc(C(F)F)c(Cl)c1C(c1c(F)cccc1F)=N[C@H]2C [Example 99, (4S)-7-chloro-8-(difluoromethyl)-6-(2,6-difluorophenyl)-1,4-dimethyl-4H-[1,2,4]triazolo[4,3-a][1,4]benzodiazepine] | 3.2 | 63.4 | 55.4 | 36.4 | 1.56
9 | COC[C@@H]1N=C(c2c(F)cccc2F)c2c(ccc(Br)c2Cl)-n2c(C)nnc21 [Example 100, (4R)-8-bromo-7-chloro-6-(2,6-difluorophenyl)-4-(methoxymethyl)-1-methyl-4H-[1,2,4]triazolo[4,3-a][1,4]benzodiazepine] | 3.4 | 34 | 19.8 | 14.6 | 1.16
10 | Cc1nnc2n1-c1ccc(Br)c(Cl)c1C(c1c(F)cccc1F)=N[C@H]2CO [Example 101, [(4R)-8-bromo-7-chloro-6-(2,6-difluorophenyl)-1-methyl-4H-[1,2,4]triazolo[4,3-a][1,4]benzodiazepin-4-yl]methanol] | 1 | 14.3 | 26.4 | 18.8 | 1.27
11 | Cc1nnc2n1-c1ccc(I)c(Cl)c1C(c1c(F)cccc1F)=N[C@H]2C [Example 102, (4S)-7-chloro-6-(2,6-difluorophenyl)-8-iodo-1,4-dimethyl-4H-[1,2,4]triazolo[4,3-a][1,4]benzodiazepine] | 0.8 | 6.6 | 8 | 34.7 | 1.54
12 | C[C@@H]1N=C(c2c(F)cccc2F)c2c(ccc(C(F)(F)F)c2Cl)-n2c(CO)nnc21 [Example 103, [(4S)-7-chloro-6-(2,6-difluorophenyl)-4-methyl-8-(trifluoromethyl)-4H-[1,2,4]triazolo[4,3-a][1,4]benzodiazepin-1-yl]methanol] | 5.4 | 49.8 | 50.4 | 67.0 | 1.83
